This is an account of results in US10626095B2, “Cyanotriazole compounds” (OTSUKA PHARMACEUTICAL CO., LTD., priority 2013, dated 2020).

The subject of assay [1] is Zucker Diabetic Fatty (ZDF) rat. Put plainly: Meal load test in type 2 diabetic model rats (postprandial blood glucose). To be noted: ZDF rats fasted overnight, oral 30 mg/kg in 5% Arabia gum, blood glucose one hour after meal loading (50 kcal/kg). Further details: unit not given here. The assay is classed as in vivo. As for the experimental part:
Effects on Type 2 Diabetes: Meal Load Test
To evaluate whether a cyanotriazol compound improves diabetes or not, especially related to postprandial blood glucose, meal load test was performed using one of type 2 diabetic model rats, the Zucker Diabetic Fatty (ZDF) rat (Charles river, Japan). About 24 animals fasted overnight (17 h) were taken blood samples from the tail veins, and measured blood glucose levels (Pre BG) and body weights (BW). Proper animals were selected and divided into […] (n=6) based on the Pre BG and BW using SAS Statistical Analysis System (SAS institute Japan Ltd. Release 9.1). The compounds to be tested (10 or 30 mg/kg body weight in 5% Arabia gum) or Arabia gum solution only (vehicle group) were orally administrated via gavage two hours prior to or just before meal loading (50 kcal/kg body weight). The meal suspension was prepared by mixing purified AIN-93G (Norsan Corp, Yokohama, Japan) and distilled water (2:3, w/v). One-hour after meal loading, blood glucose (BG1h) of each animal was measured. Effectiveness of each compound was shown by ? BG1h (BG1h difference between compound group and vehicle group). Although a set of 24 animals was used several times (from 13 weeks to 21 weeks of age), at least a one-week interval was placed from one to another test.

The subject of assay [2] is NaCT-CHO (CHO cells stably expressing human NaCT). Put plainly: Assay of the citric acid cycle activation ([1,5-14C]-citric acid, diffusion of [14C]-CO2). The class given is cell-based. To be noted: 1 hour incubation at 37° C. with [1,5-14C]-citric acid. In a few lines: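 NaCT-CHO cells (pME-CHO empty-vector cells for non-specific counts) were incubated 1 h at 37 °C in Na+-containing HEPES-Tris pH 7.4 with compound plus an equal volume of 0.4 mM [1,5-14C]-citric acid solution. Residual cell radioactivity was counted, [14C]-CO2 diffusion was taken as (Total−R)/(Total−NS)×100%, and EC50 was derived by regression.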

In the case of `CC(OC(=O)OCC(C)(C)C(=O)O)n1nc(C#N)c(-c2csc(-c3ccc(Cl)cc3)n2)n1` (stereo not drawn) [Example 1814], the “BG1h (BG1h difference between compound group and vehicle group)” value in assay [1] is −108.7.
The same measure, in the same setting: under `Cc1sc(-c2ccc(F)c(Cl)c2)nc1-c1nn(C(C)OC(=O)OCC(C)(C)C(=O)O)nc1C#N` (stereo not drawn) [Example 1823, 3-(1-{4-[2-(3-chloro-4-fluoro-phenyl)-5-methyl-thiazol-4-yl]-5-cyano-2H-[1,2,3]triazol-2-yl}-ethoxycarbonyloxy)-2,2-dimethyl-propionic acid] stands −63.3; under `CC(OC(=O)OCC(C)(C)C(=O)O)n1nc(C#N)c(-c2cccc(OCc3cc(C(F)(F)F)ccc3C(F)(F)F)c2)n1` (stereo not drawn) [Example 1806, 3-(1-{4-[3-(2,5-bis-trifluoromethyl-benzyloxy)-phenyl]-5-cyano-2H-[1,2,3]triazol-2-yl}-ethoxycarbonyloxy)-2,2-dimethyl-propionic acid], −86.3.
By EC50 is commonly meant the concentration at which the effect is half-maximal. For `Cc1nc(-c2ccc(Cl)cc2)sc1-c1nn[nH]c1C#N` [Example 113, 5-[2-(4-chloro-phenyl)-4-methyl-thiazol-5-yl]-3H-[1,2,3]triazole-4-carbonitrile], the EC50 in assay [2] came out at 790 nM.
The same measure, in the same setting: under `N#Cc1[nH]nnc1-c1cc(CCc2cccc(C(F)(F)F)n2)cc(C(F)(F)F)c1` [Example 39, 5-{3-trifluoromethyl-5-[2-(6-trifluoromethyl-pyridin-2-yl)-ethyl]-phenyl}-3H-[1,2,3]triazole-4-carbonitrile] stands 710 nM.
On the same count and under the same terms, to `N#Cc1[nH]nnc1-c1cc(F)cc(-c2cccc(C(F)(F)F)c2)c1` [Example 28, 5-(5-fluoro-3′-trifluoromethyl-biphenyl-3-yl)-3H-[1,2,3]triazole-4-carbonitrile] belongs 370 nM; to `N#Cc1[nH]nnc1-c1cc(Cc2ccc(F)cc2)cc(OC(F)(F)F)c1` [Example 34, 5-[3-(4-fluoro-benzyl)-5-trifluoromethoxy-phenyl]-3H-[1,2,3]triazole-4-carbonitrile], 460 nM; to `COc1cc(OCc2cc(C(F)(F)F)ccc2C(F)(F)F)cc(-c2nn[nH]c2C#N)c1` [Example 62, 5-[3-(2,5-bis-trifluoromethyl-benzyloxy)-5-methoxy-phenyl]-3H-[1,2,3]triazole-4-carbonitrile], 600 nM.
On the same count and under the same terms, under `N#Cc1[nH]nnc1-c1cc(/C=C/c2cccc(C(F)(F)F)c2)co1` [Example 135, 5-{4-[(E)-2-(3-trifluoromethyl-phenyl)-vinyl]-furan-2-yl}-3H-[1,2,3]triazole-4-carbonitrile] stands 1570 nM; under `CCCc1oc(-c2ccc(Cl)cc2)nc1-c1nn[nH]c1C#N` [Example 119, 5-[2-(4-chloro-phenyl)-5-propyl-oxazol-4-yl]-3H-[1,2,3]triazole-4-carbonitrile], 710 nM.
In turn, `N#Cc1[nH]nnc1-c1cccc(COc2cc(C(F)(F)F)cc(C(F)(F)F)c2)c1` [Example 57, 5-[3-(3,5-bis-trifluoromethyl-phenoxymethyl)-phenyl]-3H-[1,2,3]triazole-4-carbonitrile] displayed an EC50 in assay [2] of 480 nM.
The same measure, in the same setting: to `CC(Cc1ccccc1)Oc1cc(-c2nn[nH]c2C#N)cc(C(F)(F)F)c1` (stereo not drawn) [Example 67, 5-[3-(1-methyl-2-phenyl-ethoxy)-5-trifluoromethyl-phenyl]-3H-[1,2,3]triazole-4-carbonitrile] belongs 490 nM; to `N#Cc1[nH]nnc1-c1sc(-c2ccc(F)c(Cl)c2)nc1C(F)(F)F` [Example 116, 5-[2-(3-chloro-4-fluoro-phenyl)-4-trifluoromethyl-thiazol-5-yl]-3H-[1,2,3]triazole-4-carbonitrile], 4130 nM; to `Cc1cc(F)cc(-c2nn[nH]c2C#N)c1OCc1cc(F)cc(C(F)(F)F)c1` [Example 9, 5-[5-fluoro-2-(3-fluoro-5-trifluoromethyl-benzyloxy)-3-methyl-phenyl]-3H-[1,2,3]triazole-4-carbonitrile], 230 nM.
On the same count and under the same terms, under `N#Cc1[nH]nnc1C1CCN(c2cc(C(F)(F)F)ccc2C(F)(F)F)CC1` [Example 144, 5-[1-(2,5-bis-trifluoromethyl-phenyl)-piperidin-4-yl]-3H-[1,2,3]triazole-4-carbonitrile] stands 790 nM; under `CCOc1ccc(-c2ccc(C(F)(F)F)nc2)cc1-c1nn[nH]c1C#N` [Example 16, 5-[2-ethoxy-5-(6-trifluoromethyl-pyridin-3-yl)-phenyl]-3H-[1,2,3]triazole-4-carbonitrile], 670 nM.
As to `Cc1cc(-c2nn[nH]c2C#N)ccc1Cc1cccc(C(F)(F)F)c1` [Example 71, 5-[3-methyl-4-(3-trifluoromethyl-benzyl)-phenyl]-3H-[1,2,3]triazole-4-carbonitrile], the EC50 in assay [2] came out at 590 nM.
Turning to `N#Cc1[nH]nnc1-c1cnc(/C=C/c2cccc(C(F)(F)F)c2)s1` [Example 112, 5-{2-[(E)-2-(3-trifluoromethyl-phenyl)-vinyl]-thiazol-5-yl}-3H-[1,2,3]triazole-4-carbonitrile], the concentration for a half-maximal effect (EC50) in assay [2] amounted to 790 nM.
On the same count and under the same terms, to `N#Cc1[nH]nnc1-c1cc(OCCCC(F)(F)F)cc(C(F)(F)F)c1` [Example 2, 5-[3-(4,4,4-trifluoro-butoxy)-5-trifluoromethyl-phenyl]-3H-[1,2,3]triazole-4-carbonitrile] belongs 280 nM; to `N#Cc1[nH]nnc1-c1cccc(CN2CCc3ccccc32)c1` [Example 36, 5-[3-(2,3-dihydro-indol-1-ylmethyl)-phenyl]-3H-[1,2,3]triazole-4-carbonitrile], 450 nM.
Same read-out and setting: under `N#Cc1[nH]nnc1-c1cccc(CCOc2ccc(C(F)(F)F)cn2)c1` [Example 66, 5-{3-[2-(5-trifluoromethyl-pyridin-2-yloxy)-ethyl]-phenyl}-3H-[1,2,3]triazole-4-carbonitrile] stands 660 nM; under `CCOCc1cc(-c2ccc(F)cc2)cc(-c2nn[nH]c2C#N)c1` [Example 33, 5-(5-ethoxymethyl-4′-fluoro-biphenyl-3-yl)-3H-[1,2,3]triazole-4-carbonitrile], 270 nM.
`COc1sc(-c2ccc(Cl)cc2)nc1-c1nn[nH]c1C#N` [Example 110, 5-[2-(4-chloro-phenyl)-5-methoxy-thiazol-4-yl]-3H-[1,2,3]triazole-4-carbonitrile] had an EC50 in assay [2] of 3230 nM.
Still for that read-out and setting: to `CCOc1ccc(/C=C/c2cccc(-c3nn[nH]c3C#N)c2)cc1` [Example 44, 5-{3-[(E)-2-(4-ethoxy-phenyl)-vinyl]-phenyl}-3H-[1,2,3]triazole-4-carbonitrile] belongs 690 nM.
On the same count and under the same terms, to `Cc1sc(-c2ccc(C(F)(F)F)cn2)nc1-c1nn[nH]c1C#N` [Example 93, 5-[5-methyl-2-(5-trifluoromethyl-pyridin-2-yl)-thiazol-4-yl]-3H-[1,2,3]triazole-4-carbonitrile] belongs 580 nM.
Regarding `N#Cc1[nH]nnc1-c1cc(C(F)(F)F)ccc1CCc1ccccc1` [Example 7, 5-(2-phenethyl-5-trifluoromethyl-phenyl)-3H-[1,2,3]triazole-4-carbonitrile], in assay [2], a half-maximal response (EC50) required 170 nM.
Regarding `CCC(OCc1ccc(C(F)(F)F)cc1)c1cccc(-c2nn[nH]c2C#N)n1` (stereo not drawn) [Example 142, 5-{6-[1-(4-trifluoromethyl-benzyloxy)-propyl]-pyridin-2-yl}-3H-[1,2,3]triazole-4-carbonitrile], the EC50 in assay [2] amounted to 580 nM.
Still for that read-out and setting: under `N#Cc1[nH]nnc1-c1cccc(COc2ccc(C(F)(F)F)cn2)c1` [Example 56, 5-[3-(5-trifluoromethyl-pyridin-2-yloxymethyl)-phenyl]-3H-[1,2,3]triazole-4-carbonitrile] stands 730 nM.
The same measure, in the same setting: to `N#Cc1[nH]nnc1-c1csc(C23CC4CC(CC(C4)C2)C3)n1` [Example 88, 5-(2-(adamantan-1-yl)-thiazol-4-yl)-3H-[1,2,3]triazole-4-carbonitrile] belongs 620 nM; to `N#Cc1[nH]nnc1-c1cccc(-c2cccc(C(F)(F)F)c2)n1` [Example 141, 5-[6-(3-trifluoromethyl-phenyl)-pyridin-2-yl]-3H-[1,2,3]triazole-4-carbonitrile], 710 nM.
On the same count and under the same terms, to `N#Cc1[nH]nnc1-c1ccccc1Cc1cc(C(F)(F)F)cc(C(F)(F)F)c1` [Example 5, 5-[2-(3,5-bis-trifluoromethyl-benzyl)-phenyl]-3H-[1,2,3]triazole-4-carbonitrile] belongs 200 nM; to `CCCc1sc(-c2cccc(C(F)(F)F)c2)nc1-c1nn[nH]c1C#N` [Example 104, 5-[5-propyl-2-(3-trifluoromethyl-phenyl)-thiazol-4-yl]-3H-[1,2,3]triazole-4-carbonitrile], 700 nM.
In the case of `COc1ccccc1COc1cc(-c2nn[nH]c2C#N)cc(C(F)(F)F)c1` [Example 61, 5-[3-(2-methoxy-benzyloxy)-5-trifluoromethyl-phenyl]-3H-[1,2,3]triazole-4-carbonitrile], the 50% effective concentration (EC50) in assay [2] is 440 nM.
